# Where two headings read alike, the source gives them in different places.
# Legend:
# [1] = biological target: T1, recombinant human MAO-A (Homo sapiens, UniProt P21397); assay: MAO-A inhibition, kynuramine deamination assay (IC50); type: biochemical; settings: for IC50: pure compounds, 80 μM kynuramine, mean ± S.D. of triplicate, read-out: Monoamine Oxidase-A (IC50)
# T1 construct: purchased BD Biosciences (Bedford, MA, USA)
# T1 sequence (P21397 1-527): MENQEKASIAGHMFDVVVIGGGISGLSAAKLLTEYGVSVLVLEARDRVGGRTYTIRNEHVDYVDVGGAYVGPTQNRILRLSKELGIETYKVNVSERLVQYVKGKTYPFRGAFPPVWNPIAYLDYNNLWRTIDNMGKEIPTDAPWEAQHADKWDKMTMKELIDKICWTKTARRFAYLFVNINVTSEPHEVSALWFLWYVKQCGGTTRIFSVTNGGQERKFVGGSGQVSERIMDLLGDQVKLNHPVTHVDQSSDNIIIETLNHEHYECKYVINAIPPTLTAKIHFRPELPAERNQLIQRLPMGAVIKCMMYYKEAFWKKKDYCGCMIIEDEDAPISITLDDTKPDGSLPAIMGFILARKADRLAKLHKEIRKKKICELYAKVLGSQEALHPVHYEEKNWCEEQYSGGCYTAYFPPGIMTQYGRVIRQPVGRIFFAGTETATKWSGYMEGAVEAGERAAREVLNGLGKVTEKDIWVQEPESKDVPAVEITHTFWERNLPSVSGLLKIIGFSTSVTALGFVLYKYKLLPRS
# Protocol: (§1) To investigate the effect of the selected constituents on MAO-A and MAO-B, the kynuramine deamination assay was adapted for 96-well plates as described earlier. […] For MAO-A, the substrate concentration of 80 μM kynuramine was chosen because the apparent KM value for substrate binding reported previously was approximately 40 μM [48]. […] Similarly, for MAO-B, substrate concentration of 50 μM kynuramine was chosen. The assay was performed with the addition of inhibitor. Inhibition was calculated as percent of product formation compared to the corresponding control (enzyme-substrate reaction) without the inhibitors. The reactions were carried out in 0.1 M potassium phosphate buffer at pH 7.4. Incubations mixtures contained 5 μg/mL of MAO-A (50 μL in buffer) and 10 μg/mL of MAO-B (50 μL in buffer). The inhibitor was dissolved in DMSO or in buffer (if not dissolved in DMSO). The total reaction volume was 200 μL yielding a final DMSO concentration of 1.0% in the reaction mixture. The reaction mixtures were pre-incubated for 10 min at 37 °C followed by the addition of MAO-A/MAO-B to initiate the reactions. Reactions were incubated for 20 min at 37 °C and were stopped immediately by the addition of 75 μL of 2N NaOH. The formation of 4-hydroxyquinoline was determined fluorometrically by SpectraMax M5 fluorescence plate reader (Molecular Devices, Sunnyvale, CA, USA) with an excitation and emission wavelength of 320 nm and 380 nm, respectively, using the Soft Max Pro program. Appropriate controls with the test compounds, fractions and extracts, where the enzyme or the substrate was added after stopping the reaction were setup simultaneously to check interference with the fluorescence measurements.
# (§2) IC50 values for inhibition of MAO-A and B by the selected constituents were determined using fixed concentration of substrate and varying concentration of the inhibitor.
# [2] = biological target: T2, recombinant human MAO-B (Homo sapiens, UniProt P27338); assay: MAO-B inhibition, kynuramine deamination assay (IC50); type: biochemical; settings: pure compounds; 50 μM kynuramine; mean ± S.D. of triplicate; read-out: Monoamine Oxidase-B (IC50)
# T2 construct: purchased BD Biosciences (Bedford, MA, USA)
# T2 sequence (P27338 1-520): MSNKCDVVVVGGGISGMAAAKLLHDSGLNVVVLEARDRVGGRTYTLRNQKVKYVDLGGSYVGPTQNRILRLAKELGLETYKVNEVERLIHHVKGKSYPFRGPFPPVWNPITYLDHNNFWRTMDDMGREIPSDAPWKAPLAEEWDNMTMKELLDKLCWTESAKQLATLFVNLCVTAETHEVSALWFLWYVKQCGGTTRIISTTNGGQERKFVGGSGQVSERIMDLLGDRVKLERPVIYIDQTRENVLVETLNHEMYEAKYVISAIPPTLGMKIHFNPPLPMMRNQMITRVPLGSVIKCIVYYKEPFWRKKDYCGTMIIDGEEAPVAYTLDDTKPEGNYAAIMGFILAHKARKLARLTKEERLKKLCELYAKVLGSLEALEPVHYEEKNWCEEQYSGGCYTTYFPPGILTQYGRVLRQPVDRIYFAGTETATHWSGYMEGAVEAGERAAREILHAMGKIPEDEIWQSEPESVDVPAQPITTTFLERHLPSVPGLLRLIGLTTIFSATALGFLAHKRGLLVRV
# Protocol: as §1, §2
# [3] = biological target: T1, recombinant human MAO-A; assay: Enzyme kinetics / inhibition mechanism, MAO-A (Ki, Lineweaver-Burk); type: biochemical; settings: for Ki: kynuramine 1.90-500 μM, SigmaPlot enzyme module, mean ± S.D. of triplicate experiments, read-out: Monoamine Oxidase-A Ki
# Text: (§3) Based on dose-response inhibition, two concentrations of the inhibitors were selected, one below and another above IC50 value for the inhibition. For each experiment, three sets of assays were done at varying concentrations of the substrate, one control without inhibitors and with two concentrations of the inhibitor.
# (§4) Controls without inhibitor were also run simultaneously.
# [4] = biological target: T2, recombinant human MAO-B; assay: Enzyme kinetics / inhibition mechanism, MAO-B (Ki, Lineweaver-Burk); type: biochemical
# Text: as §3, §4
# [5] = biological target: T1, recombinant human MAO-A; assay: Time-dependent enzyme inhibition, MAO-A; type: biochemical; settings: pre-incubation 0-15 min; galangin 0.25 μM, apigenin 1.2 μM
# Protocol: (§5) The controls without inhibitors were also run simultaneously. Activities of the enzymes were determined as described above and percentage of enzyme activity remaining was plotted against the preincubation time to determine time-dependent inhibition.
# (§6) The controls without inhibitors were also run simultaneously. Activities of the enzymes were determined as described above and percentage of enzyme activity remaining was plotted against the preincubation time to determine time-dependent enzyme-inhibition.
# [6] = biological target: T2, recombinant human MAO-B; assay: Time-dependent enzyme inhibition, MAO-B; type: biochemical; settings: pre-incubation 0-15 min; galangin 14.0 μM, apigenin 4.0 μM
# Protocol: as §5, §6
# [7] = biological target: T1, recombinant human MAO-A; assay: Reversibility of binding by enzyme-inhibitor complex dissociation dialysis, MAO-A; type: biochemical; settings: for MAO-A activity recovered after dialysis: overnight dialysis; for Nature of binding with MAO-A: dialysis dissociation
# Protocol: (§7) The characteristic binding of these inhibitors was also investigated by the enzyme-inhibitor complex dissociation by dialysis. High concentrations of the inhibitors were allowed to interact with the enzyme (MAO-A or B) for 20 min and the resulting enzyme-inhibitor complex mixtures were dialyzed overnight against buffer solutions. The catalytic activities of the enzymes were analyzed before and after the dialysis. The recombinant human MAO-A lost about 30% of the enzyme activity during overnight dialysis. […] After the dialysis about 70% and 80% activity of the enzyme was recovered from enzyme-galangin and enzyme-apigenin incubation mixtures. This observation indicated reversal of the enzyme activity due to formation of dissociable enzyme-inhibitor complex. […] The recombinant MAO-B lost about 30% of the enzyme activity during overnight dialysis.
# (§8) Most of the inhibitors produce inhibition of the target enzyme through formation of an enzyme-inhibitor complex. Formation of the enzyme-inhibitor complex may be accelerated in presence of high concentration of the inhibitor. […] After 20 min incubation at 37 °C, the reaction was stopped by chilling the tubes on the ice bath. All the samples were dialyzed against potassium phosphate buffer (25 mM; pH 7.4) at 4 °C for 14 h (three buffer changes). Control enzyme (without inhibitor) was also run through the same procedure and activity of the enzyme was determined before and after the dialysis. Recovery of the catalytic activity enzyme after extensive dialysis of the enzyme-inhibitor mix provided the information about reversibility/irreversibility of binding of the inhibitor with the enzyme.
# [8] = biological target: T2, recombinant human MAO-B; assay: Reversibility of binding by enzyme-inhibitor complex dissociation dialysis, MAO-B; type: biochemical; settings: for MAO-B activity recovery after dialysis: overnight dialysis
# Protocol: as §7, §8
# [9] = test system: total MAO (A & B); design: method as in not given; settings: mouse brain crude mitochondrial preparation; earlier study, ref not given; read-out: IC50 for inhibition of total MAO (A & B); cited from earlier work
# [10] = test system: MAO-A; design: method as in not given; settings: mouse brain crude mitochondrial preparation, iso-enzyme specific substrates; earlier study, ref not given; cited from earlier work
smiles,measurement,setting,value
"O=c1cc(-c2ccc(O)cc2)oc2cc(O)cc(O)c12 [Apigenin, apigenin]",IC50,[1],640 ± 110 nM
same,IC50,[2],1120 ± 270 nM
same,Monoamine Oxidase-A Type of Inhibition,[3],Competitive/Reversible
same,Ki,[3],125 ± 14 nM
same,Monoamine Oxidase-A Type of Inhibition,[3]; listed as apigenin,competitive
same,Monoamine Oxidase-B Type of Inhibition,[4],Competitive/Reversible
same,Ki,"[4]; kynuramine 1.90-500 μM, SigmaPlot enzyme module, mean ± S.D. of triplicate experiments, read-out: Monoamine Oxidase-B Ki",238 ± 24 nM
same,Monoamine Oxidase-B Type of Inhibition,[4]; listed as apigenin,competitive
same,Time-dependence of binding/inhibition of MAO-A,[5],not dependent on pre-incubation time
same,Time-dependence of binding/inhibition of MAO-B,[6],not dependent on pre-incubation time
same,inhibition at 20 µM,"[7]; 20.0 μM inhibitor, 20 min incubation, read-out: Inhibition of catalytic activity of MAO-A before dialysis",> 88%
same,MAO-A activity recovered after dialysis,[7]; 20.0 μM inhibitor,~80%
same,Nature of binding with MAO-A,[7],reversible
same,inhibition at 25 µM,"[8]; 25.0 μM inhibitor, 20 min incubation, read-out: Inhibition of catalytic activity of MAO-B before dialysis",~90%
same,MAO-B activity recovery after dialysis,[8]; 25.0 μM inhibitor,almost fully recovered
same,IC50,[9],1000 nM
same,Potency of MAO-A inhibition relative to MAO-B,[10],about 7.5 fold
"O=c1c(O)c(-c2ccc(O)c(O)c2)oc2cc(O)ccc12 [Fisetin hydrate, fisetin]",Selectivity for MAO-A vs. MAO-B,[1]; MAO-A over MAO-B,> 47 fold
same,IC50,[1],2100 ± 90 nM
same,IC50,[2],> 100000 nM
"O=c1c(O)c(-c2ccccc2)oc2cc(O)cc(O)c12 [Galangin, galangin]",IC50,[1],130 ± 10 nM
same,Monoamine Oxidase-A Type of Inhibition,[3],Competitive/Reversible
same,Ki,[3],29 ± 4 nM
same,Monoamine Oxidase-A Type of Inhibition,[3]; listed as galangin,competitive
same,Monoamine Oxidase-B Type of Inhibition,[4],Competitive/Reversible
same,Monoamine Oxidase-B Type of Inhibition,[4]; listed as galangin,competitive
same,Time-dependence of binding/inhibition of MAO-A,[5],not dependent on pre-incubation time
same,Time-dependence of binding/inhibition of MAO-B,[6],not dependent on pre-incubation time
same,inhibition at 10 µM,"[7]; 10.0 μM inhibitor, 20 min incubation, read-out: Inhibition of catalytic activity of MAO-A before dialysis",> 97%
same,MAO-A activity recovered after dialysis,[7]; 10.0 μM inhibitor,about 70%
same,Nature of binding with MAO-A,[7],reversible
same,Inhibition of MAO-B enzyme activity before dialysis,"[8]; 50.0 μM inhibitor, 20 min incubation",~58.3
same,MAO-B activity recovery after dialysis,[8]; 50.0 μM inhibitor,almost completely recovered
"COc1ccc2c(c1)[nH]c1c(C)nccc12 [Harmine, reference compound]",IC50,[2],27500 ± 2670 nM
same,Monoamine Oxidase-A Type of Inhibition,[3],Competitive/Reversible
"O=c1c(O)c(-c2ccc(O)cc2O)oc2cc(O)cc(O)c12 [Morin hydrate, morin]",Selectivity for MAO-A vs. MAO-B,[1]; MAO-A over MAO-B,9 fold
same,IC50,[1],5880 ± 150 nM
same,IC50,[2],49700 ± 560 nM
"O=c1c(O)c(-c2ccc(O)c(O)c2)oc2cc(O)cc(O)c12 [Quercetin, quercetin]",Selectivity for MAO-A vs. MAO-B,[1],15 fold
same,IC50,[1],2440 ± 120 nM
same,IC50,[2],38700 ± 1200 nM
"O=C1c2c(O)cc(O)cc2OC(c2ccc(O)c(O)c2)C1O (stereo not shown) [Toxifolin, taxifolin]",IC50,[1],65100 ± 1960 nM
same,IC50,[2],53800 ± 3910 nM
